Data set [1] deals with T1, Epidermal growth factor receptor (Homo sapiens, UniProt P00533). The experiment in a line: Inhibition of wild-type EGFR (unknown origin) using Poly(Glu,Tyr) 4:1 as substrate after 60 mins by ELISA.
Data set [2] addresses Epidermal growth factor receptor (Homo sapiens, UniProt P00533, C797S/L858R/T790M). Briefly: (§1) Inhibition of human C-terminal His-tagged and N-terminal GST-tagged EGFR L858R/T790M/C797S triple mutant ( 668 to 1210 amino acids) expressed in baculovirus infected Sf9 insect cells using Poly(Glu,Tyr) 4:1 as substrate after 60 mins by ELISA.
For data set [3], the target named is Epidermal growth factor receptor (Homo sapiens, UniProt P00533, T790M/C797S/L858R). The description is as §1. The settings on record: sf9.
Data set [4] can be described thus: Aqueous solubility of the compound at 2 mg at pH 7.4 after 24 hrs by LC-MS/MS analysis. As to conditions: pH 7.4, 24 h. Type of data set: physicochemical.
In data set [5] the test system is BaF3. Briefly: Antiproliferative activity against mouse BAF3 cells harboring EGFR L858R/T790M/C797S triple mutant after 72 hrs by resazurin dye-based fluorescence assay. The class given is functional, cell-based. The settings on record: BaF3, 72 h.
The nature of data set [6]: Metabolic stability in rat liver microsomes preincubated for 5 mins followed by NADPH addition and measured after 5 to 45 mins by LC/MS analysis. Type of data set: ADME, Microsome.
For data set [7], the target named is T1, Epidermal growth factor receptor. Briefly: Inhibition of wild-type EGFR (unknown origin) transfected in human A431 cells assessed as reduction in EGF-induced EGFR phosphorylation at 0.1 to 3 uM by Western blot analysis. Type of data set: cell-based.
Data set [8] can be described thus: Permeability of the compound in human Caco2 cells at 10 uM after 120 mins by LC-MS/MS analysis. Type of data set: ADME, cell-based. As to conditions: caco-2, 2 h.
Data set [9] relates to Epidermal growth factor receptor (Homo sapiens), P00533 [L858R,T790M,C797S]. The experiment in a line: Inhibition of EGFR L858R/T790M/C797S triple mutant (unknown origin) transfected in mouse BAF3 cells assessed as reduction in EGF-induced EGFR phosphorylation at 0.1 to 3 uM by Western blot analysis. The class given is cell-based.

pIC50: −log10 of the molar value. Calls of active or inactive are those of the source. The calls are words filed in the database; no cut-off is given here.

Epidermal growth factor receptor (Homo sapiens, UniProt P00533, C797S/L858R/T790M), sequence (P00533 25-1210 T790M/C797S/L858R limits assumed): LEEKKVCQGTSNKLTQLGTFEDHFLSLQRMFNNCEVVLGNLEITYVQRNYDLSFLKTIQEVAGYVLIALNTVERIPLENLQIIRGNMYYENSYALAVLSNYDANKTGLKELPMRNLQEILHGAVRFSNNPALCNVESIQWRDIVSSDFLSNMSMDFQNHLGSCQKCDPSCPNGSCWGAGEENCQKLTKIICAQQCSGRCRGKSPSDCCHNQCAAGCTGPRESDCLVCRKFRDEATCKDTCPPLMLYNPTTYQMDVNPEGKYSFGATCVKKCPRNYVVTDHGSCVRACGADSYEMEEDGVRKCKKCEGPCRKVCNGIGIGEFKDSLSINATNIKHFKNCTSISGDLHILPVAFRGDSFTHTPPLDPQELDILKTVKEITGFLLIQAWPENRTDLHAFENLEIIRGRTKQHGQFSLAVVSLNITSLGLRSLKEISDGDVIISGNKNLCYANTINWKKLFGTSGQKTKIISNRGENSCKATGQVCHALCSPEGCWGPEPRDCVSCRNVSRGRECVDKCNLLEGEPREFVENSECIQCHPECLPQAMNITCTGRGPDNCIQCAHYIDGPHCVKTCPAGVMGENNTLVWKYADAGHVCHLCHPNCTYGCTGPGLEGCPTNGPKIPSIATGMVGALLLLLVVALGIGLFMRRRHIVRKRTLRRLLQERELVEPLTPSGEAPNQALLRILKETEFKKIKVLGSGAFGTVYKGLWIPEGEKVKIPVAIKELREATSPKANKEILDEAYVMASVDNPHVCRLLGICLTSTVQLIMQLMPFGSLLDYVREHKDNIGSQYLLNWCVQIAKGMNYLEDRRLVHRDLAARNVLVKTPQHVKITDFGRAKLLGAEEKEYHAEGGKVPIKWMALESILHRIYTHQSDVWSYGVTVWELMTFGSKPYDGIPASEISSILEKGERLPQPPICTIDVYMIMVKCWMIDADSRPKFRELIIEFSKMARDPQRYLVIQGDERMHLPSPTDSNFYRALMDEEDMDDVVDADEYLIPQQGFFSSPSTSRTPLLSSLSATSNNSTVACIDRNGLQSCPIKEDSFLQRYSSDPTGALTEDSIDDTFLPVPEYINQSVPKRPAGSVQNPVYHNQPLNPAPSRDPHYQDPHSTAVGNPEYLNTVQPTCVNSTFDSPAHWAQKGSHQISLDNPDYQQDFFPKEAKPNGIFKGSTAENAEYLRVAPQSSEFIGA
T1 sequence (P00533 whole entry, the tested form may be a part): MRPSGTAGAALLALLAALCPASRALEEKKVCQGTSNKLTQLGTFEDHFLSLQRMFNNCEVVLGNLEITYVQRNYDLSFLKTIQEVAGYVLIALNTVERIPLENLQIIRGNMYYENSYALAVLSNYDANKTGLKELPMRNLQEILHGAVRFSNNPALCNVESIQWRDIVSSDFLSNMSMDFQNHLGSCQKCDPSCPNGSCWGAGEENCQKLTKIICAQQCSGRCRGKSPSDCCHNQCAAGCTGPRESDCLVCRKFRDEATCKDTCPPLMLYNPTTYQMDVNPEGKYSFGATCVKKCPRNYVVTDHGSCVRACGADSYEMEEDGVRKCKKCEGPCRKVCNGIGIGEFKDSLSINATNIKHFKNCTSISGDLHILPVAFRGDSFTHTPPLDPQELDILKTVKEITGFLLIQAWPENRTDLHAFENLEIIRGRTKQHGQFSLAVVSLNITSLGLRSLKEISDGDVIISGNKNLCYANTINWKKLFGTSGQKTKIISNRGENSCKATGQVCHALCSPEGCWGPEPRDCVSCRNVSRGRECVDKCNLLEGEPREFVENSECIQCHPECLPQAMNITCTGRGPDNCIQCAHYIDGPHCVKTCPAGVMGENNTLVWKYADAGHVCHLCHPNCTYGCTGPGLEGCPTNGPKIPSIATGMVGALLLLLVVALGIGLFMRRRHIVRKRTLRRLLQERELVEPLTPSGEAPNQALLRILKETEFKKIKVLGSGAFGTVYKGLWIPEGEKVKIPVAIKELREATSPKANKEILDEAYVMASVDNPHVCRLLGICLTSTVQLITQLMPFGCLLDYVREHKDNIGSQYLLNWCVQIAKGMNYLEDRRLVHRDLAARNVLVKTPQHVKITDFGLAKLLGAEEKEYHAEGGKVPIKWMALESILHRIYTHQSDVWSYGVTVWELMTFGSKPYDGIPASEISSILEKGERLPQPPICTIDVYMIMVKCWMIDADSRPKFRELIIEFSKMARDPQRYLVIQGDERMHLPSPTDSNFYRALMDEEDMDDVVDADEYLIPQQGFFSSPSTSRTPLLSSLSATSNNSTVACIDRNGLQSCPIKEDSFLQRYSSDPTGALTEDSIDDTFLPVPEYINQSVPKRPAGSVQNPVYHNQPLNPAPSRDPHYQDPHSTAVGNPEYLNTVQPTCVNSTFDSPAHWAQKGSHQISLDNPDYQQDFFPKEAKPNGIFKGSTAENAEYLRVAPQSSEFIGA
Epidermal growth factor receptor (Homo sapiens, UniProt P00533, T790M/C797S/L858R), sequence (P00533 25-1210 T790M/C797S/L858R limits assumed): as the sequence (P00533 25-1210 T790M/C797S/L858R limits assumed) above
Epidermal growth factor receptor (Homo sapiens), P00533 [L858R,T790M,C797S], sequence (P00533 whole entry T790M/C797S/L858R): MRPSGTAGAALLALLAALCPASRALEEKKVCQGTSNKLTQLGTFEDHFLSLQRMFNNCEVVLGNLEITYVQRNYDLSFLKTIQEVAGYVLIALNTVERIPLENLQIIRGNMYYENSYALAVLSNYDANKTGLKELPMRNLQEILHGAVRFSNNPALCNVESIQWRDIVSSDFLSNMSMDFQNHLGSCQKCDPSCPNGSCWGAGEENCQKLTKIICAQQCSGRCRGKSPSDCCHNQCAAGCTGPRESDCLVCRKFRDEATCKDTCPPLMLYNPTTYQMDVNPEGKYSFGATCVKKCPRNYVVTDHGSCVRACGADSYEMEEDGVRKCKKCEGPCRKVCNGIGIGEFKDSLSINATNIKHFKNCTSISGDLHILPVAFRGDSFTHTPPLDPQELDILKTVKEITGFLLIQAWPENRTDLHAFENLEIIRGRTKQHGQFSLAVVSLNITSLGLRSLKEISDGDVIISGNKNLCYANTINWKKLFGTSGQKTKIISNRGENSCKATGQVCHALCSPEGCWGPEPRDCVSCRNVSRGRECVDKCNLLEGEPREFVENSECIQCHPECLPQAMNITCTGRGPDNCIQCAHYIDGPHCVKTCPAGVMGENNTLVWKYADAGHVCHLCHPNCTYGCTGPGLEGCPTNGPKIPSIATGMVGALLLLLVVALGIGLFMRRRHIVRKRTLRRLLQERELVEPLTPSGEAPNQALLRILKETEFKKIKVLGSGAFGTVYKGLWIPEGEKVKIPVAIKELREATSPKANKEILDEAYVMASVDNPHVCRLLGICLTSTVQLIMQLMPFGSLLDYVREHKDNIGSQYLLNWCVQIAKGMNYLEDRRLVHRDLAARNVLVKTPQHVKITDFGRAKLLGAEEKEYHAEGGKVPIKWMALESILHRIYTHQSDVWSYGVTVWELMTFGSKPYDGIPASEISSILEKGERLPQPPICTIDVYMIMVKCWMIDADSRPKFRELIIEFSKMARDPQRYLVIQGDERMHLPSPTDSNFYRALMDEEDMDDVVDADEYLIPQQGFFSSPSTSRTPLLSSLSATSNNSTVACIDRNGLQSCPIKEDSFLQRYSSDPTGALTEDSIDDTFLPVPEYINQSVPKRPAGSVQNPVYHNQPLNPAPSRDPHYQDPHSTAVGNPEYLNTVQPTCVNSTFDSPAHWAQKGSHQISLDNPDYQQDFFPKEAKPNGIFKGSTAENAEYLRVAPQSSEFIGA

With `N#Cc1ccc(O)c(-c2nc(NCc3cnccn3)c3ccccc3n2)c1`, the values for the pIC50 in [1] and in data set [2] were under 6.00 and 7.41, respectively.
On the same counts, the results for `CCC(=O)N1CCC[C@@H](n2c(=O)c(-c3ccccc3)c(C)c3cnc(Nc4ccc(N5CCN(C)CC5)c(C)c4)nc32)C1` are under 6.00 and under 6.00.
On the same counts, the results for `CCC(=O)N1CCC[C@@H](n2c(=O)c(-c3ccc(Cl)cc3)c(C)c3cnc(Nc4ccc(N5CCN(C)CC5)c(C)c4)nc32)C1` are under 6.00 and under 6.00.
Turning to `CCC(=O)N1CCC[C@@H](n2c(=O)c(-c3cccc(Cl)c3)c(C)c3cnc(Nc4ccc(N5CCN(C)CC5)c(C)c4)nc32)C1`, the pIC50 in data set [1] and in [2] was under 6.00 in each case.
Consider `CCC(=O)N[C@H]1CC[C@@H](n2c(=O)c(-c3ccccc3Cl)c(C)c3cnc(Nc4ccc(N5CCN(C)CC5)c(C)c4)nc32)CC1` (stereo in doubt; 8c-A), for which the pIC50 in data set [1] was under 6.00; in data set [2] it was 6.29.
On the same counts, the results for `CCC(=O)N[C@H]1CC[C@@H](n2c(=O)c(-c3ccccc3Cl)c(C)c3cnc(Nc4ccc(N5CCN(C)CC5)c(C)c4)nc32)CC1` (stereo in doubt; 8c-B) are 6.77 and 7.56.
As to `CCC(=O)N1CCC[C@H](n2c(=O)c(-c3ccccc3Cl)c(C)c3cnc(Nc4ccc(N5CCN(C)CC5)c(C)c4)nc32)C1` (stereo in doubt; 8e-A), the pIC50 in data set [1] and in data set [2] was under 6.00 each time.
As for `CCC(=O)N1CCC[C@H](n2c(=O)c(-c3ccccc3Cl)c(C)c3cnc(Nc4ccc(N5CCN(C)CC5)c(C)c4)nc32)C1` (stereo in doubt; 8e-B), the pIC50 in [1] and in [3] was under 6.00 in each case.
For `CCC(=O)N1CCC[C@@H](n2c(=O)c(-c3ccccc3Cl)c(C)c3cnc(Nc4ccc(N5CCN(C)CC5)c(C)c4)nc32)C1` (stereo in doubt; 8f-A), the pIC50 in data set [1] and in data set [2] was under 6.00 throughout.
In the case of `CCC(=O)N1CCC[C@@H](n2c(=O)c(-c3ccccc3Cl)c(C)c3cnc(Nc4ccc(N5CCN(C)CC5)c(C)c4)nc32)C1` (stereo in doubt; 8f-B), the pIC50 in data set [1] was under 6.00; in data set [2] it was 7.19.
On the same counts, the results for `CCC(=O)N1CC[C@@H](n2c(=O)c(-c3ccccc3Cl)c(C)c3cnc(Nc4ccc(N5CCN(C)CC5)c(C)c4)nc32)C1` (stereo in doubt; 8g-A) are under 6.00 and under 6.00.
On to `CCC(=O)N1CC[C@@H](n2c(=O)c(-c3ccccc3Cl)c(C)c3cnc(Nc4ccc(N5CCN(C)CC5)c(C)c4)nc32)C1` (stereo in doubt; 8g-B), for which the pIC50 in data set [1] was under 6.00; in data set [2], 7.09.
On the same counts, the results for `CCC(=O)N1CCC[C@@H](n2c(=O)c(-c3ccccc3Br)c(C)c3cnc(Nc4ccc(N5CCN(C)CC5)c(C)c4)nc32)C1` (stereo in doubt; 8l-A) are under 6.00 and 6.30.
On the same counts, the results for `CCC(=O)N1CCC[C@@H](n2c(=O)c(-c3ccccc3Br)c(C)c3cnc(Nc4ccc(N5CCN(C)CC5)c(C)c4)nc32)C1` (stereo in doubt; 8l-B) are under 6.00 and 7.25.
On the same counts, the results for `CCC(=O)N1CCC[C@@H](n2c(=O)c(-c3ccccc3C)c(C)c3cnc(Nc4ccc(N5CCN(C)CC5)c(C)c4)nc32)C1` (stereo in doubt; 8m-A) are under 6.00 and 6.23.
For `CCC(=O)N1CCC[C@@H](n2c(=O)c(-c3ccccc3C)c(C)c3cnc(Nc4ccc(N5CCN(C)CC5)c(C)c4)nc32)C1` (stereo in doubt; 8m-B), the pIC50 in data set [1] was under 6.00; in data set [2], 6.64.
On the same counts, the results for `CCC(=O)N1CCC[C@@H](n2c(=O)c(-c3cc(F)ccc3Cl)c(C)c3cnc(Nc4ccc(N5CCN(C)CC5)c(C)c4)nc32)C1` (stereo in doubt; 8p-A) are under 6.00 and 6.68.
On the same counts, the results for `CCC(=O)N1CCC[C@@H](n2c(=O)c(-c3cc(F)ccc3Cl)c(C)c3cnc(Nc4ccc(N5CCN(C)CC5)c(C)c4)nc32)C1` (stereo in doubt; 8p-B) are under 6.00 and 7.43.
Consider `CCC(=O)N1CCC[C@@H](n2c(=O)c(-c3ccc(F)cc3Cl)c(C)c3cnc(Nc4ccc(N5CCN(C)CC5)c(C)c4)nc32)C1` (stereo in doubt; 8q-A), for which the values for the pIC50 in data set [1] and in data set [2] were under 6.00 and 6.65, respectively.
In the case of `CCC(=O)N1CCC[C@@H](n2c(=O)c(-c3ccc(F)cc3Cl)c(C)c3cnc(Nc4ccc(N5CCN(C)CC5)c(C)c4)nc32)C1` (stereo in doubt; 8q-B), the pIC50 in data set [1] was under 6.00; in data set [2] it was 7.05.
Consider `CCC(=O)N1CCC[C@@H](n2c(=O)c(-c3cccc(F)c3Cl)c(C)c3cnc(Nc4ccc(N5CCN(C)CC5)c(C)c4)nc32)C1` (stereo in doubt; 8r-B), for which, in data set [4], the solubility result is recorded as “Soluble”. Also, the pIC50 in [5] is 6.18. Besides, in [6], the Stability result is reported as “Unstable”. In addition, the “inhibition (INH)” value in data set [7] is “Not Active”. Moreover, the permeability entry in [8] is on record as “Permeable”. In addition, the inhibition result in [9] is “Active”.
